In US7098307B2, “Neo-tryptophan” (Mayo Foundation for Medical Education and Research, priority 1998, dated 2006):
“And” between values parts separate entries of the source, which are not always exact repeats. Equal values may be shown once. Square brackets hold non-standard residues; d marks the D form. Peptide text beside a SMILES is read from it. Ala(indol-4-yl) = N[C@@H](Cc1cccc2[nH]ccc12)C(=O)O; NMeR = CN[C@@H](CCCNC(=N)N)C(=O)O; Tle = CC(C)(C)[C@H](N)C(=O)O

Experiments:
[1] = Catalepsy bar test in rats; assay type: in vivo, rat
Method: The following experiments were performed to assess the ability of NT69L to cause and influence catalepsy. Male Sprague-Dawley rats (150–250 g) or CD-1 mice (24–26 g) were housed in a temperature-controlled room in groups of five with free access to food and water. The animals were kept on a 12 hour light/dark cycle, and all tests were performed during the light cycle. […] Thirty minutes after injection, the animals were tested for catalepsy. For rats, the test involved simply placing the animal's fore paws on a suspended metal bar 10 mm in diameter, 11 cm above the counter. The time elapsed until the animal's fore paws touch the counter was recorded. […] The cut-off time was 20 seconds, and each animal was tested three times for each time point.

[2] = molecular target: T1, dopamine D2 receptors (Homo sapiens, UniProt P14416); assay: Radiolabeled competitive binding, human brain tissue, dopamine
T1 construct: Human brain tissue; from tissue; host or cells: human brain tissue

[3] = Body temperature (hypothermia) in rats; conditions: for change in body temperature: 5 mg/kg ip
[4] = system: NT binding sites; assay: [125I]NT binding in brain tissue of rats chronically treated; assay type: in vivo, rat; conditions: 1 mg/kg ip daily four days, 5 mg/kg day five
Method: The effect of chronic treatment with NT69L on the number of NT binding sites within brain was assessed. Rats were treated daily with NT69L (1 mg/kg; ip) for four days. On day five, the rats were treated with 5 mg/kg (ip) NT69L, tested behaviorally, and then sacrificed. The PAG and rest of brain were dissected from the animal and used in NT binding analysis. Briefly, homogenates were prepared from freshly obtained PAG and the rest of brain of rats according to Goedert et al. (Brain Res. 304, 71–81 (1984)) with the following modifications: the assay buffer contained the peptidase inhibitors 1,10 phenanthroline (1 μM) and aprotonin (5 mg/ml). For PAG and rest of brain binding assays, tissues were incubated with 0.3 nM [^125I]NT (NEN, Boston, Mass.) at room temperature for 30 minutes. Total and nonspecific binding was measured and the binding sites were normalized to polypeptide concentrations by BCA protein determination (Pierce Chemical Co., Rockford, Ill.).

[5] = Catalepsy (fixed rearing posture) in mice; assay type: in vivo; conditions: 5 mg/kg ip
Method: The following experiments were performed to assess the ability of NT69L to cause and influence catalepsy. Male Sprague-Dawley rats (150–250 g) or CD-1 mice (24–26 g) were housed in a temperature-controlled room in groups of five with free access to food and water. The animals were kept on a 12 hour light/dark cycle, and all tests were performed during the light cycle. The test for catalepsy is well established and quite simple (Munkvad et al., Brain Behav. Evol. 1:89–100(1968)). […] Thirty minutes after injection, the animals were tested for catalepsy. For rats, the test involved simply placing the animal's fore paws on a suspended metal bar 10 mm in diameter, 11 cm above the counter. The time elapsed until the animal's fore paws touch the counter was recorded. […] For mice, catalepsy was scored based on the time that the mice maintained a fixed rearing posture against the side of the cage (Adams et al., Proc. Natl. Acad. Sci. USA 94:12157–12161 (1997)). The cut-off time was 20 seconds, and each animal was tested three times for each time point.

[6] = molecular target: α2-adrenergic receptors; assay: Radiolabeled competitive binding, human brain tissue, adrenergic α2
[7] = Degradation in rat plasma (HPLC peak area); assay type: in vitro ADME; conditions: 25% plasma, 37° C., 0.5 mg/mL polypeptide, read-out: half-time, Plasma Rat (converted)
From the text: For the degradation studies, data were plotted in linear form as a semi-log plot with SigmaPlot for Windows Version 4.00. Linear regression on these plots provided the parameters used to calculate the half-time (t1/2) for degradation of each polypeptide. The correlation coefficient (R) for the linear regression was taken as a measure of the goodness-of-fit.

[8] = Hot plate test (antinociception, % MPE) in rats
[9] = Apomorphine-induced climbing, sniffing and licking behavior in rats; assay type: in vivo, rat
Method: Apomorphine was used to assess the ability of NT analogs to act as neuroleptics. Briefly, male Sprague-Dawley rats were pretreated intraperitoneally with either NT69L or saline only. Thirty minutes following pretreatment, the rats received a subcutaneous injection of apomorphine (600 μg/kg). Occasionally, the effectiveness of NT69L was assessed by measuring antinociception and hypothermia just prior to apomorphine administration. Control animals included rats receiving NT69L followed by saline only, and rats receiving no treatment. The apomorphine was dissolved in oxygen-free boiled 0.9% NaCl solution containing 0.1% ascorbic acid and 0.1% metabisulfite to prevent oxidation. The volume of injection was 1 mL/kg under the loose skin at the back of the animal's neck. Inunediately following injection, the rats were placed in cages for observation. About 5–10 minutes later, behavioral monitoring was initiated and lasted for one hour. Climbing episodes were measured by observing the number of times the rat moved up and down in a vertical position during a two minute observation period. Statistical analysis was done using the Student's t-test with P<0.05 being considered significant. Graphs and ED50 data were generated using GraphPad Prism® software (version 2.01, GraphPad Software, Inc., San Diego, Calif.).

[10] = 5 mg/kg ip after four days at 1 mg/kg ip
[11] = intraperitoneal administration (NT64L 1 mg/kg)
[12] = 1 mg/kg ip, 30 minutes before apomorphine

Which “catalepsy scores in rats” value ([1]; 5 mg/kg ip) does the source give for `CN[C@@H](CCCNC(=N)N)C(=O)N[C@@H](CCCCN)C(=O)N1CCC[C@H]1C(=O)N[C@@H](Cc1cccc2[nH]ccc12)C(=O)N[C@H](C(=O)N[C@@H](CC(C)C)C(=O)O)C(C)(C)C` [NT69L] (H-[NMeR]KP[Ala(indol-4-yl)][Tle]L-OH; N-terminus and C-terminus assumed) here?
The value was “no effect on catalepsy scores”.

What about the “haloperidol-induced catalepsy, test compound given after” value ([1]; 5 mg/kg ip 30 minutes after haloperidol 1 mg/kg ip) of the same molecule?
The value was “reversed”.

And the “haloperidol-induced catalepsy, test compound given before” value ([1]; 5 mg/kg ip 30 minutes before haloperidol 1 mg/kg ip)?
Its value is “did not exhibit significant cataleptic behavior”.

What about the “catalepsy on haloperidol injection after chronic treatment” value ([1]; after the third and fourth days of NT69L 1 mg/kg ip) of the same molecule?
The value was “exhibited catalepsy”.

What about the “ED50 reversal of haloperidol-induced catalepsy” value ([1]; haloperidol 120 μg/kg ip, NT69L ip 40 minutes later, scored at 130 minutes) of the same molecule?
Its value is 0.26 mg/kg.

And the Kd [2]?
Its Kd is 13.3 µM.

What about the “time up to which body temperature reduction remained significant” value ([3]; 1 mg/kg intraperitoneal) of the same molecule?
Its value is “up to 300 minutes”.

And the “Peak BT change” value ([3]; 1 mg/kg intraperitoneal, rats)?
Its value is −5.3 °C and −5.3 @ ° C.

What about the “body temperature lowering after the first injection” value ([3]; 1 mg/kg ip daily, day 1) of the same molecule?
Its value is “about 4 degrees”.

And the “body temperature lowering after the second injection” value ([3]; 1 mg/kg ip daily, day 2)?
The value was 1.5 degrees.

And the “body temperature lowering after the third injection” value ([3]; 1 mg/kg ip daily, day 3)?
Its value is “no body temperature lowering was detected”.

And the “reduction in body temperature on 5× challenge” value [3, 10]?
The value was “comparable to the reduction normally observed in naive rats”.

What about the “change in body temperature” value ([3]; 30 minutes after injection) of the same molecule?
Its value is “about −3 °C”.

What about the “change in body temperature” value ([3]; 77 minutes after injection) of the same molecule?
The value was “about −4 °C”.

And the induction of hypothermia [3, 11]?
The induction of hypothermia was “did induce”.

What about the “ED50 BT” value ([3]; intraperitoneal, @ 90 min) of the same molecule?
The value was 0.4 mg/kg.

What about the “peak reduction in body temperature” value ([3]; intraperitoneal, dose not restated) of the same molecule?
Its value is 5.3 °C.

What about the “ED50 body temperature lowering” value ([3]; ip, at 90 minutes) of the same molecule?
The value was 0.39 mg/kg.

What about the “peak reduction in body temperature (change)” value ([3]; nasal, 5 mg/kg, at 30 minutes) of the same molecule?
Its value is −1.4 °C.

And the “peak reduction in body temperature (change)” value ([3]; oral, 20 mg/kg)?
Its value is −0.63 °C.

What about the “time of peak reduction in body temperature” value ([3]; oral, 20 mg/kg) of the same molecule?
The value was 60 min.

What about the “[125I]NT binding, PAG tissue” value ([4]; control 2.34) of the same molecule?
Its value is 1.89 dpm/μg protein.

And the “[125I]NT binding, rest of brain tissue” value ([4]; control 3.1)?
The value was 2.1 dpm/μg protein.

What about the catalepsy in mice [5] of the same molecule?
Its catalepsy in mice is “caused no catalepsy”.

What about the Kd [6] of the same molecule?
Its Kd is 58.6 µM.

And the half-life at 0.5 mg/mL [7]?
Its half-life at 0.5 mg/mL is 10.4 days.

What about the “time up to which peak % MPE of 100% was observed” value ([8]; 1 mg/kg intraperitoneal) of the same molecule?
The value was “about 200 minutes”.

And the “time of Peak % MPE” value ([8]; 1 mg/kg intraperitoneal, rats)?
Its value is 300 min.

And the “% MPE after the first injection” value ([8]; 1 mg/kg ip daily, day 1)?
The value was 100%.

And the “analgesic effect after the second injection” value ([8]; 1 mg/kg ip daily, day 2)?
Its value is “no analgesic effect”.

And the “analgesic effect after the third injection” value ([8]; 1 mg/kg ip daily, day 3)?
The value was “no analgesic effect”.

What about the “analgesic effect on 5× challenge” value [8, 10] of the same molecule?
Its value is “no analgesic effect”.

What about the “induction of antinociception (hot plate)” value [8, 11] of the same molecule?
The value was “did induce”.

And the “ED50 % MPE” value ([8]; intraperitoneal, @ 90 min)?
Its value is 0.3 mg/kg.

What about the “peak % MPE value” ([8]; nasal, 5 mg/kg, at 60 minutes) of the same molecule?
The value was 70%.

And the “peak % MPE value” ([8]; oral, 20 mg/kg)?
The value was 11%.

And the “time of Peak % MPE” value ([8]; oral, 20 mg/kg)?
Its value is 30 min.

What about the “effect on apomorphine-induced climbing behavior” value [9, 12] of the same molecule?
Its value is “long-lasting blockade of the climbing behavior”.

What about the “effect on apomorphine-induced sniffing and licking behaviors” value [9, 12] of the same molecule?
Its value is “did not influence”.

What about the “effect on apomorphine-induced climbing behavior” value ([9]; 5 mg/kg ip) of the same molecule?
The value was “completely blocked”.

What about the “ED50 blockade of apomorphine-induced climbing” value ([9]; ip, 75 minutes after NT69L, 45 minutes after apomorphine 600 μg/kg sc) of the same molecule?
The value was 0.016 mg/kg.
